Experimental data: ChEMBL document CHEMBL1156124, “Assessment of the putative binding conformation of a pyrazolopyridine class of inhibitors of MAPKAPK2 using computational studies” (Eur J Med Chem, 2010)

target: MAP kinase-activated protein kinase 2 (Homo sapiens) (UniProt P49137); assay: Inhibition of MK2
Sequence (P49137 whole entry, looked up): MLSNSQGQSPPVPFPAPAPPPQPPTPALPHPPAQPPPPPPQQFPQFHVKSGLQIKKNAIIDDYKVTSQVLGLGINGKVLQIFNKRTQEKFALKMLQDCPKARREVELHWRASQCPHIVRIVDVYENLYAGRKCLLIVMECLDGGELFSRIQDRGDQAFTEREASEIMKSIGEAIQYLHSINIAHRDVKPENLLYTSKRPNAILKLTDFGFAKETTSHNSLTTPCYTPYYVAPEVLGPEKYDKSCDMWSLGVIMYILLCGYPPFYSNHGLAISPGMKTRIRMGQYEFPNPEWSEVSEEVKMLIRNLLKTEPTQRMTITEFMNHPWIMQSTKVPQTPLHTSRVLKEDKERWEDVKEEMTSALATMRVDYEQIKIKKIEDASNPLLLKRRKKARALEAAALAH

Activity [µM] | SMILES
0.2 | CCOc1ccc(Nc2c(C)c(NC3CCNCC3)c(C#N)c3ccnn23)cc1
10 | CCOc1ccc(Nc2c(C)c(NC3CCCCC3N)c(C#N)c3ccnn23)cc1 (centres undefined)
0.2 | N#Cc1c(N[C@@H]2CCCNC2)cc(Nc2ccccc2Cl)n2nccc12
0.2 | COCCOc1ccc(Nc2c(C)c(N[C@H]3CCNC3)c(C#N)c3ccnn23)cc1
1 | CCOc1ccc(Nc2c(C)c(NC3CCCC(N)C3)c(C#N)c3ccnn23)cc1 (centres undefined)
< 0.2 | CCCc1c(N[C@@H]2CCCNC2)c(C#N)c2ccnn2c1Nc1ccc(OCC)cc1
1 | CCOc1ccc(Nc2c(C)c(NCCC3CCCN3)c(C#N)c3ccnn23)cc1 (centres undefined)
0.2 | N#Cc1c(N[C@@H]2CCCNC2)cc(Nc2ccc(-c3ccccc3)cc2)n2nccc12
1 | CCOc1ccc(Nc2c(C)c(NCC3CCNC3)c(C#N)c3ccnn23)cc1 (centres undefined)
0.2 | CCOc1ccc(Nc2c(C)c(NC3CCC(NCc4ccccc4)CC3)c(C#N)c3ccnn23)cc1 (centres undefined)
0.2 | CCOc1ccc(Nc2c(C)c(N[C@H]3CC[C@H](NCC4CCCCC4)CC3)c(C#N)c3ccnn23)cc1
< 0.2 | c1ccn2nccc2c1
0.2 | CCOc1ccc(Nc2c(C)c(NCCN)c(C#N)c3ccnn23)cc1
< 0.2 | C=CCc1c(N[C@@H]2CCCNC2)c(C#N)c2ccnn2c1Nc1ccc(OCC)cc1
< 0.2 | CCOc1ccc(Nc2c(C(C)C)c(N[C@H]3CC[C@H](N)CC3)c(C#N)c3ccnn23)cc1
0.2 | N#Cc1c(N[C@H]2CC[C@H](N)CC2)cc(Nc2nc3ccccc3s2)n2nccc12
< 0.2 | CCOc1ccc(Nc2c(CC)c(N[C@@H]3CCCNC3)c(C#N)c3ccnn23)cc1
< 0.2 | CCOc1ccc(Nc2c(C3CC3)c(N[C@H]3CC[C@H](N)CC3)c(C#N)c3ccnn23)cc1
1 | CCOc1ccc(Nc2c(C)c(NCC3CCCN3)c(C#N)c3ccnn23)cc1 (centres undefined)
< 0.2 | Cc1c(N[C@H]2CC[C@H](N)CC2)c(C#N)c2ccnn2c1Nc1ccc(-c2ccccc2)cc1
< 0.2 | COCCOc1ccc(Nc2c(C)c(N[C@@H]3CCCNC3)c(C#N)c3ccnn23)cc1
< 0.2 | CCOc1ccc(Nc2c(CCO)c(N[C@@H]3CCCNC3)c(C#N)c3ccnn23)cc1
0.2 | CCOc1ccc(Nc2c(C3CC3)c(N[C@@H]3CCCNC3)c(C#N)c3ccnn23)cc1
0.2 | CCOc1ccc(Nc2c(C)c(OC3CCC(N)CC3)nc3ccnn23)cc1 (centres undefined)
0.2 | CCOc1ccc(Nc2c(C)c(NCCCN)c(C#N)c3ccnn23)cc1
< 0.2 | CCOc1ccc(Nc2c(C)c(N[C@H]3CC[C@H](NCC(C)C)CC3)c(C#N)c3ccnn23)cc1
< 0.2 | CCOc1ccc(Nc2c(CC(C)C)c(N[C@@H]3CCCNC3)c(C#N)c3ccnn23)cc1

Activity [µM] | SMILES
0.2 | CCOc1ccc(Nc2c(C)c(NCCCCCN)c(C#N)c3ccnn23)cc1
10 | CCOc1ccc(Nc2c(C)c(NCCC3CCCCN3)c(C#N)c3ccnn23)cc1 (centres undefined)
0.2 | CCOc1ccc(Nc2c(C)c(N[C@H]3CC[C@H](NCc4ccccc4)CC3)c(C#N)c3ccnn23)cc1
1 | CCOc1ccc(Nc2c(C)c(OC3CCCNC3)nc3ccnn23)cc1 (centres undefined)
< 0.2 | CCOc1ccc(Nc2c(CC)c(N[C@H]3CC[C@H](N)CC3)c(C#N)c3ccnn23)cc1
0.2 | N#Cc1c(N[C@H]2CC[C@H](N)CC2)cc(Nc2ccccc2Cl)n2nccc12
10 | CCOc1ccc(Nc2c(C)c(OCCN)nc3ccnn23)cc1
10 | CCOc1ccc(Nc2c(C)c(NCCC3CCCN3C)c(C#N)c3ccnn23)cc1 (centres undefined)
< 0.2 | Cc1c(N[C@@H]2CCCNC2)c(C#N)c2ccnn2c1NCc1nc2ccccc2s1
0.2 | CCOc1ccc(Nc2c(C)c(N[C@H]3CC[C@H](NCCCc4ccccc4)CC3)c(C#N)c3ccnn23)cc1
0.2 | CCOc1ccc(Nc2cc(N[C@@H]3CCCNC3)c(C#N)c3ccnn23)cc1
< 0.2 | CCOc1ccc(Nc2c(C)c(N[C@H]3CC[C@H](N)CC3)c(C#N)c3ccnn23)cc1
< 0.2 | Cc1c(N[C@@H]2CCCNC2)c(C#N)c2ccnn2c1Nc1nc2ccccc2s1
10 | CCOc1ccc(Nc2c(C)c(N[C@@H]3CCCC[C@H]3N)c(C#N)c3ccnn23)cc1
10 | CCOc1ccc(Nc2c(C)c(NCCCCCCN)c(C#N)c3ccnn23)cc1
0.2 | CCOc1ccc(Nc2c(-c3ccccc3)c(NC3CCCNC3)c(C#N)c3ccnn23)cc1 (centres undefined)
< 0.2 | COCCOc1ccc(Nc2c(C)c(N[C@H]3CC[C@H](N)CC3)c(C#N)c3ccnn23)cc1
1 | CCOc1ccc(Nc2c(C)c(NC3CNCc4ccccc43)c(C#N)c3ccnn23)cc1 (centres undefined)
< 0.2 | Cc1c(N[C@@H]2CCCNC2)c(C#N)c2ccnn2c1Nc1ccccc1
1 | CCOc1ccc(Nc2c(C)c(NCCCNC3CCCCC3)c(C#N)c3ccnn23)cc1
1 | CCOc1ccc(Nc2c(C)c(NCC3CCCCN3)c(C#N)c3ccnn23)cc1 (centres undefined)
< 150 | NC(=O)n1ncc2ccccc21
< 0.2 | CCOc1ccc(Nc2c(C)c(NC3CCC(N)CC3)c(C#N)c3ccnn23)cc1 (centres undefined)
0.2 | CCOc1ccc(Nc2c(C)c(N[C@H]3CC[C@H](NCCc4ccccc4)CC3)c(C#N)c3ccnn23)cc1
< 0.2 | CCOc1ccc(Nc2c(C)c(N[C@H]3CCCNC3)c(C#N)c3ccnn23)cc1
0.2 | Cc1c(N[C@H]2CC[C@H](N)CC2)c(C#N)c2ccnn2c1NOc1ccccc1
1 | CCOc1ccc(Nc2c(C)c(NCC3CCCNC3)c(C#N)c3ccnn23)cc1 (centres undefined)
